According to patent publication US8461329B2, “Isoquinoline derivative” (Taisho Pharmaceutical Co., Ltd., priority 2008, dated 2013):

What follows are molecules tested against T1, CRTH2 (KB8 cells) (Homo sapiens, UniProt Q9Y5Y4) (assay: CRTH2 antagonist test (PGD2-induced intracellular calcium ion concentration increase in KB8 cells)). Settings: PGD2 final concentration 100 nM, Fluo-4-AM fluorescence, read-out: antagonist activity (IC50 value, inhibition of calcium ion concentration increase).
T1 construct: host or cells: KB8 cells (human CRTH2 expression cell)
T1 sequence (Q9Y5Y4 1-395): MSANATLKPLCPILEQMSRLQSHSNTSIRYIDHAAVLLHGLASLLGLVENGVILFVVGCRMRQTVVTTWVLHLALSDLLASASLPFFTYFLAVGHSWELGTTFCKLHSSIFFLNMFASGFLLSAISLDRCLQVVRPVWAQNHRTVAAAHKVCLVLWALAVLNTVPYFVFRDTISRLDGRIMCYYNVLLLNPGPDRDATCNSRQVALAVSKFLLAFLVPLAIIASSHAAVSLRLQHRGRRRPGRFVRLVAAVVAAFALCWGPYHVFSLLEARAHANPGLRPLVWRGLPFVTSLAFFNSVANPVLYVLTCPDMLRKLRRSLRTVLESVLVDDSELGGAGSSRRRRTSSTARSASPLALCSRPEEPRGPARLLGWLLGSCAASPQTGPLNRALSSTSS
Type: cell-based
Experimental: The antagonist activity of the compound of the present invention was considered by using the intracellular calcium ion concentration increase reaction induced when the prostaglandin D2 was added to KB8 cells.
Fluo-4-AM (4-(6-acetoxymethoxy-2,7-difluoro-3-oxo-9-xanthenyl)-4′-methyl-2,2′-(ethylenedioxy)dianilide-N,N,N′,N′-tetraacetic acid tetrakis(acetoxymethyl) ester (SIGMA, final concentration: 1 μM) was added to KB8 cells, and the cells were incubated at 37° C. for 30 min, washed with phosphate buffer (Invitrogen), and then suspended in Hank's balanced salt solution (Invitrogen)) containing a reaction buffer solution (10 mM HEPES (Invitrogen), and 1 mM calcium chloride (SIGMA). The suspension was dispensed in a 96 well plate (Nunc) so that 2×10^5 cells/well were placed, and the compound of the present invention and PGD2 (final concentration: 100 nM) were added. The fluorescence intensity thereof was measured over time by using FDSS6000 (Hamamatsu Photonics), and thus the maximum fluorescence intensity value “d” was obtained. The same procedure was carried out in the absence of the compound, and the maximum fluorescence intensity value “e” was obtained; and the same procedure was carried out in the absence of the compound and […], and the maximum fluorescence intensity value “f” was obtained.
The calcium ion concentration increase inhibition rate of a compound was calculated by the following calculation formula: Inhibitory rate(%)=[1−(d−f)/(e−f)]×100
That is to say, by using calcium ion concentration increase inhibitory rates of compounds to be tested having various concentrations, the IC50 value was calculated according to a dose-dependent inhibition curve analyzed by using XLfit (IDBS) as a data analysis software, and the value was defined as an indicator of the antagonist activity. In Tables, A denotes an inhibitory activity showing the IC50 value of less than 50 nM; B denotes an inhibitory activity showing the IC50 value of 50 nM or greater and less than 500 nM; C denotes an inhibitory activity showing the IC50 value of 500 nM or greater and less than 1000 nM; and D denotes an inhibitory activity showing the IC50 value of 1000 nM or greater.

`CC(C)(C(=O)O)c1cnc(C(=O)c2ccc(C(=O)NCCc3ccc(Cl)cc3)cc2)c2ccccc12` [Example 255, 2-{1-[(4-{[2-(4-chlorophenyl)ethyl]carbamoyl}phenyl)carbonyl]isoquinolin-4-yl}-2-methylpropanoic acid] and `CC(C(=O)O)c1cnc(Cc2ccc(C(=O)NCCc3ccc(Cl)cc3)cc2)c2ccccc12` (stereo not shown) [Example 254, 2-[1-(4-{[2-(4-chlorophenyl)ethyl]carbamoyl}benzyl)isoquinolin-4-yl]propanoic acid] cannot be ordered by IC50: at least 1000 nM for the first, 500 to 1000 nM for the second.

Compared with `O=C(O)Cc1cnc(C(=O)c2ccc(NC(=O)c3cnc4ccccc4c3)cc2)c2ccccc12` [Example 112], `O=C(O)Cc1cnc(C(=O)c2ccc(NC(=O)c3cnc4ccccc4n3)cc2)c2ccccc12` [Example 86] is higher in IC50: under 50 nM for the first, 50 to 500 nM for the second.

Compared with `O=C(O)Cc1cnc(Cc2ccc(C(=O)NCCc3cc(Cl)cc(Cl)c3)cc2)c2ccccc12` [Example 219], `O=C(O)Cc1cnc(Cc2ccc(C(=O)NCCc3cccc(Cl)c3)cc2)c2ccccc12` [Example 155] is lower in IC50: 50 to 500 nM for the first, under 50 nM for the second.

`Cc1ccc(S(=O)(=O)NCC(=O)Nc2ccc(C(=O)c3ncc(CC(=O)O)c4ccccc34)cc2)cc1` [Example 68] and `NS(=O)(=O)c1ccc(C(=O)Nc2ccc(C(=O)c3ncc(CC(=O)O)c4ccccc34)cc2)cc1` [Example 109] fall in the same range of IC50: 50 to 500 nM for the first, 50 to 500 nM for the second.

`Cc1ccccc1CCNC(=O)c1ccc(Cc2ncc(CC(=O)O)c3ccccc23)cc1` [Example 167] and `O=C(O)Cc1cnc(Cc2ccc(C(=O)NCCc3ccccc3Cl)cc2)c2ccccc12` [Example 162] cannot be ordered by IC50: under 50 nM for the first, under 50 nM for the second.

First: CC(C)(C)c1ccc(C(=O)Nc2ccc(C(=O)c3ncc(CC(=O)O)c4ccccc34)cc2)cc1 [Example 111]
Second: O=C(O)Cc1cnc(C(=O)c2ccc(NC(=O)c3ccncc3)cc2)c2ccccc12 [Example 51]
The IC50 of the first is lower: under 50 nM for the first, at least 1000 nM for the second.

First: O=C(O)Cc1cnc(Cc2ccc(C(=O)NCCc3ccc(Oc4ccccc4)cc3)cc2)c2ccccc12 [Example 195]
Second: O=C(O)Cc1cnc(Cc2ccc(C(=O)NCCc3ccccc3)cc2)c2ccccc12 [Example 161, (1-{4-[(2-phenylethyl)carbamoyl]benzyl}isoquinolin-4-yl)acetic acid]
The IC50 of the first is lower: under 50 nM for the first, 50 to 500 nM for the second.

Compared with `COc1cc(C(=O)Nc2ccc(C(=O)c3ncc(CC(=O)O)c4ccccc34)cc2)ccc1C` [Example 100], `COc1ccc(C(=O)Nc2ccc(C(=O)c3ncc(CC(=O)O)c4ccccc34)cc2)cc1OC` [Example 106] is higher in IC50: under 50 nM for the first, 50 to 500 nM for the second. The first is the more potent here.

`O=C(O)Cc1cnc(Cc2ccc(C(=O)NCCc3ccccn3)cc2)c2ccccc12` [Example 175] and `O=C(O)Cc1cnc(Cc2ccc(C(=O)NCCc3cccnc3)cc2)c2ccccc12` [Example 176] cannot be ordered by IC50: at least 1000 nM for the first, at least 1000 nM for the second.

First: COc1ccc(CCNC(=O)c2ccc(Cc3ncc(CC(=O)O)c4ccccc34)cc2)cc1F [Example 232]
Second: COc1ccc(CCNC(=O)c2ccc(Cc3ncc(CC(=O)O)c4ccccc34)cc2)cc1Cl [Example 170]
The IC50 of the first is lower: under 50 nM for the first, 50 to 500 nM for the second.

`Cc1cc(F)ccc1C(=O)Nc1ccc(C(=O)c2ncc(CC(=O)O)c3ccccc23)cc1` [Example 61] and `Cc1ccc(F)cc1C(=O)Nc1ccc(C(=O)c2ncc(CC(=O)O)c3ccccc23)cc1` [Example 62] fall in the same range of IC50: 50 to 500 nM for the first, 50 to 500 nM for the second.

First: Cc1c(F)c(F)c(C(=O)Nc2ccc(C(=O)c3ncc(CC(=O)O)c4ccccc34)cc2)c(F)c1F [Example 125]
Second: O=C(O)Cc1cnc(C(=O)c2ccc(NC(=O)c3cccc(Cl)c3F)cc2)c2ccccc12 [Example 70]
The IC50 of the first is higher: 500 to 1000 nM for the first, 50 to 500 nM for the second. The second is the more potent here.

`O=C(O)Cc1cnc(Cc2ccc(C(=O)NCCc3cc4ccccc4o3)cc2)c2ccccc12` [Example 249] and `O=C(O)Cc1cnc(Cc2ccc(C(=O)NCCc3ccc(F)c(Cl)c3)cc2)c2ccccc12` [Example 210] cannot be ordered by IC50: under 50 nM for the first, under 50 nM for the second.

Compared with `O=C(O)Cc1cnc(Cc2ccc(C(=O)NCCc3cc(Cl)ccc3Cl)cc2)c2ccccc12` [Example 224], `Cc1ccc(CCNC(=O)c2ccc(Cc3ncc(CC(=O)O)c4ccccc34)cc2)c(C)c1` [Example 208] is lower in IC50: 50 to 500 nM for the first, under 50 nM for the second. The second is the more potent here.

`O=C(O)Cc1cnc(C(=O)c2ccc(NC(=O)c3c(Cl)cc(Cl)cc3Cl)cc2)c2ccccc12` [Example 48] and `O=C(O)Cc1cnc(C(=O)c2ccc(NC(=O)c3c(Cl)cccc3Cl)cc2)c2ccccc12` [Example 33] cannot be ordered by IC50: at least 1000 nM for the first, at least 1000 nM for the second.

Compared with `O=C(O)Cc1cnc(Cc2ccc(C(=O)NCCc3ccc(OC(F)(F)F)cc3)cc2)c2ccccc12` [Example 203], `COc1ccc(CCNC(=O)c2ccc(Cc3ncc(CC(=O)O)c4ccccc34)cc2)cc1` [Example 156] is higher in IC50: under 50 nM for the first, 50 to 500 nM for the second.

First: O=C(O)Cc1cnc(C(=O)c2ccc(NC(=O)C3(c4ccc(Cl)cc4)CCCC3)cc2)c2ccccc12 [Example 59]
Second: O=C(O)Cc1cnc(C(=O)c2ccc(NC(=O)c3ccccc3Cl)cc2)c2ccccc12 [Example 24]
The IC50 of the first is lower: 50 to 500 nM for the first, at least 1000 nM for the second. The first is the more potent here.

`O=C(O)Cc1cnc(C(=O)c2ccc(NC(=O)c3ccccc3F)cc2)c2ccccc12` [Example 39] and `O=C(O)Cc1cnc(C(=O)c2ccc(NC(=O)c3ccccc3Br)cc2)c2ccccc12` [Example 25] cannot be ordered by IC50: 500 to 1000 nM for the first, at least 1000 nM for the second.

Compared with `O=C(O)Cc1cnc(C(=O)c2ccc(NC(=O)c3cccc(F)c3)cc2)c2ccccc12` [Example 71], `O=C(O)Cc1cnc(C(=O)c2ccc(NC(=O)c3ccccc3)cc2)c2ccccc12` [Example 38] is lower in IC50: 50 to 500 nM for the first, under 50 nM for the second.

Compared with `Cc1c(C)c(C)c(CCNC(=O)c2ccc(Cc3ncc(CC(=O)O)c4ccccc34)cc2)c(C)c1C` [Example 192], `Cc1ccc(F)cc1CCNC(=O)c1ccc(Cc2ncc(CC(=O)O)c3ccccc23)cc1` [Example 213] is higher in IC50: under 50 nM for the first, 50 to 500 nM for the second.

First: O=C(O)Cc1cnc(Cc2ccc(C(=O)NCCc3ccc([N+](=O)[O-])cc3)cc2)c2ccccc12 [Example 174]
Second: Cc1ccc(CCNC(=O)c2ccc(Cc3ncc(CC(=O)O)c4ccccc34)cc2)cc1 [Example 165]
The IC50 of the first is higher: 50 to 500 nM for the first, under 50 nM for the second. The second is the more potent here.

First: COc1ccc(CCNC(=O)c2ccc(Cc3ncc(CC(=O)O)c4ccccc34)cc2)cc1OC [Example 189]
Second: COc1ccc(CCNC(=O)c2ccc(Cc3ncc(CC(=O)O)c4ccccc34)cc2)cc1C [Example 171]
The IC50 of the first is higher: at least 1000 nM for the first, 50 to 500 nM for the second.

First: O=C(O)Cc1cnc(Cc2ccc(C(=O)NCCc3ccc(C4CCCCC4)cc3)cc2)c2ccccc12 [Example 237]
Second: O=C(O)Cc1cnc(Cc2ccc(C(=O)NCc3ccc(Cl)cc3)cc2)c2ccccc12 [Example 154]
The IC50 of the first is lower: under 50 nM for the first, 50 to 500 nM for the second. The first is the more potent here.

`O=C(O)Cc1cnc(Cc2ccc(C(=O)NCCNC(=O)c3ccc(Cl)cc3)cc2)c2ccccc12` [Example 247] and `CC(C)(CNC(=O)c1ccc(Cc2ncc(CC(=O)O)c3ccccc23)cc1)c1ccc(Cl)cc1` [Example 251] fall in the same range of IC50: 50 to 500 nM for the first, 50 to 500 nM for the second.

First: O=C(O)Cc1cnc(Cc2ccc(C(=O)NCCc3cc(C(F)(F)F)cc(C(F)(F)F)c3)cc2)c2ccccc12 [Example 222]
Second: O=C(O)Cc1cnc(Cc2ccc(C(=O)NCCN3CCOCC3)cc2)c2ccccc12 [Example 185]
The IC50 of the first is lower: under 50 nM for the first, at least 1000 nM for the second. The first is the more potent here.

First: CC(C)=CC(=O)Nc1ccc(C(=O)c2ncc(CC(=O)O)c3ccccc23)cc1 [Example 65]
Second: CCCCC(=O)Nc1ccc(C(=O)c2ncc(CC(=O)O)c3ccccc23)cc1 [Example 80]
The IC50 of the first is higher: 500 to 1000 nM for the first, 50 to 500 nM for the second.

`COc1ccc(/C=C/C(=O)Nc2ccc(C(=O)c3ncc(CC(=O)O)c4ccccc34)cc2)cc1` [Example 84] and `COc1ccc2[nH]c(C(=O)Nc3ccc(C(=O)c4ncc(CC(=O)O)c5ccccc45)cc3)cc2c1` [Example 96] cannot be ordered by IC50: under 50 nM for the first, under 50 nM for the second.

First: O=C(O)Cc1cnc(C(=O)c2ccc(NC(=O)c3cc4ccccc4cn3)cc2)c2ccccc12 [Example 113]
Second: O=C(O)Cc1cnc(C(=O)c2ccc(NC(=O)c3ncccn3)cc2)c2ccccc12 [Example 55]
The IC50 of the first is lower: under 50 nM for the first, 500 to 1000 nM for the second. The first is the more potent here.

Compared with `O=C(O)Cc1cnc(Cc2ccc(S(=O)(=O)NCCc3ccc(Cl)cc3)cc2)c2ccccc12` [Example 152, [1-(4-{[2-(4-chlorophenyl)ethyl]sulfamoyl}benzyl)isoquinolin-4-yl]acetic acid], `O=C(O)Cc1cnc(C(=O)c2ccc(NC(=O)c3ccc(C4CCCCC4)cc3)cc2)c2ccccc12` [Example 114] is lower in IC50: 50 to 500 nM for the first, under 50 nM for the second.
